Read-outs that look alike come from different tables or passages of the source. Marks after values point to notes of the source that are not given here. One block for each compound: values may come before it.
Legend:
[1] = DPPH radical scavenging assay; type: biochemical; settings: Trolox equivalent antioxidant capacity
Description: (§1) The antioxidant activities of the 70% methanol extract of M. volcanica and the separated compounds were evaluated using DPPH, ABTS, and ORAC assays. The results were expressed as Trolox equivalent antioxidant capacity (TEAC, µg Trolox/µg extract or µM Trolox/µM compound), which were calculated with the equations obtained from the calibration curves of Trolox standards (final concentrations) versus their DPPH and ABTS radical inhibition (%) and the net AUC value (ORAC assay).
The DPPH radical scavenging assay was carried out using an EL800 microplate reader (Bio-Tek Instruments, Winooski, VT, USA). Briefly, 180 μL of freshly prepared DPPH solution (0.32 mM in methanol) was mixed with 20 μL of sample (dissolved in methanol, extract 250 µg/mL; compounds 62.5–1000 µM) in a 96-well plate. The mixture was incubated for 20 min in the dark at 25 °C, and then, the absorbance was measured at […]. […] Results are expressed in µg Trolox equivalents/µg extract or µM Trolox equivalents/µM compound. The DPPH radical scavenging activity (%) is calculated using Equation (1):(1) %inhibition=1−Asample−Ablank1/Acontrol−Ablank2×100%, where Asample is the absorbance of DPPH solution with a sample, Ablank1 is the absorbance of the test sample without DPPH, Acontrol is the absorbance of DPPH solution without a sample, Ablank2 is the absorbance of methanol, without DPPH or a sample.

[2] = ABTS radical scavenging assay; type: biochemical; settings: Trolox equivalent antioxidant capacity
Description: as §1
The ABTS radical scavenging assay was carried out using the same EL800 microplate reader. Briefly, 0.2 mM of ABTS diammonium salt was prepared in 3.5 mM of potassium persulfate aqueous solution, and the mixture solution was then diluted 10 times using distilled water. The diluted solution was allowed to stand for 24 h in the dark at room temperature (about 25 °C) to produce ABTS radical cations (ABTS^+). For reaction, 290 μL of ABTS^+ solution was mixed with 10 μL of sample (dissolved in methanol, extract 62.5–125 µg/mL; compounds 20–250 µM) in a 96-well plate, and the mixture solution was allowed to react for 10 min at 25 °C in the dark. Then, the absorbance was measured at 750 nm. […] Results are expressed in µg Trolox equivalents/µg extract or µM Trolox equivalents/µM compound. The ABTS radical scavenging activity (%) is calculated using Equation (1) where Asample is the absorbance of ABTS^+ solution with a sample, Ablank1 is the absorbance of the test sample without ABTS^+, Acontrol is the absorbance of ABTS^+ solution without a sample, Ablank2 is the absorbance of buffer, without ABTS^+ or a sample.

[3] = biological target: fructose-mediated bovine serum albumin (BSA) glycation (Bos taurus, UniProt P02769); test: Antiglycation assay, fructose-mediated BSA glycation model; settings: for inhibition at 12.5 µM / inhibition at 25 µM / inhibition at 50 µM / inhibition at 100 µM: read-out: Antiglycation activity, inhibition (%)
Chain of fructose-mediated bovine serum albumin (BSA) glycation (P02769 25-607): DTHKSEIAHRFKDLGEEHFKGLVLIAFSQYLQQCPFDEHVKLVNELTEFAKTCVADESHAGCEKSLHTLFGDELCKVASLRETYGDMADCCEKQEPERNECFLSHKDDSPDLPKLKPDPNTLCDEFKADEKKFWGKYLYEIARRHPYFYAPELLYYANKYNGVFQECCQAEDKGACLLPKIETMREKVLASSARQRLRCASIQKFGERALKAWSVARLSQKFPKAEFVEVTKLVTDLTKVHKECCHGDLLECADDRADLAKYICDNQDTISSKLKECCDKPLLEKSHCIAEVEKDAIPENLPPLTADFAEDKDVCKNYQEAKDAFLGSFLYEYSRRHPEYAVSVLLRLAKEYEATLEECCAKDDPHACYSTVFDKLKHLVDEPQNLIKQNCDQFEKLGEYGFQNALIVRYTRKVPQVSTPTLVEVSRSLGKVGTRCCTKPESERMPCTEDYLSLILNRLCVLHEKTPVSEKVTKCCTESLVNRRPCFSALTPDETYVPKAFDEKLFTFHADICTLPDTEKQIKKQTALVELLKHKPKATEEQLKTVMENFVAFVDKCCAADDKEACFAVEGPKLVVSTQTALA

[4] = ORAC (oxygen radical absorbance capacity) assay; type: biochemical; settings: Trolox equivalent antioxidant capacity, ORAC assay (peroxyl radicals)
Description: as §1
The ORAC assay was carried out using a Fluoroskan Ascent FL microplate reader (Thermo, Waltham, MA, USA) using the method described previously with minor modifications. Antioxidants can scavenge the peroxyl radicals generated by AAPH, which prevent the degradation of the fluorescein and, therefore, prevent the loss of the fluorescence of fluorescein. Briefly, fluorescein sodium salt (117 nM) and AAPH (40 mM) were freshly prepared in 0.1 M phosphate-buffered saline (PBS, pH 7.4). For reaction, 120 µL of fluorescein sodium salt (117 nM) and 20 µL of sample (dissolved in methanol, extract 10–20 µg/mL; compounds 10–160 µM) were mixed in a black 96-well plate and pre-incubated for 15 min at 37 °C. Next, 60 µL of AAPH (40 mM) was added, and the fluorescence was measured 100 times (interval 1 min) at excitation and emission wavelengths of 485 nm and 538 nm, respectively, by the microplate reader maintained at 37 °C. […] The relative ORAC values are expressed in µg Trolox equivalents/µg extract or µM Trolox equivalents/µM compound.

[5] = biological target: T1, aldose reductase (AR) (Rattus norvegicus, UniProt P07943); test: Aldose reductase (AR) inhibition assay, rat lens homogenate; type: biochemical, Sprague–Dawley rats; settings: for IC50: rat lens AR homogenate
T1 construct: centrifuged at 10,000× g for 30 min at 4 °C (Centrifuge 5417R, Eppendorf, Germany) to obtain AR homogenate (in the supernatant); from tissue; host or cells: eye lenses of Sprague–Dawley rats
Description: For the extraction of AR, the rat eye lenses were grounded in a precooled mortar (−70 °C) and extracted using 0.1 M PBS (pH 6.2; about 0.5 mL of PBS per two frozen rat lenses).
A 96-well plate-based AR inhibition assay was used in this study, which was modified from a previous method. In principle, the rate of the absorbance decrease of NADPH at 340 nm (OD340 nm) was used for evaluation of the AR inhibitory activity. […] Then, as soon as 20 μL of the substrate (DL-glyceraldehyde dimer, 25 mM in 0.1 M PBS, pH 7.0) was added, the absorbance of the reaction solution at 340 nm was measured for 6 min using an Epoch microplate spectrophotometer (BioTek Instruments, Highland Park, IL, USA). […] The samples were first prepared at high concentrations in DMSO or in a mixture of DMSO and water and then diluted using water shortly before the experiment. The concentration of DMSO was kept within 0.2% (v/v) in the reaction system. […] The AR inhibition ratio (%) for the samples was calculated using Equation (4):(4) %inhibition=1−Slopes−Slopeb/Slopec−Slopeb×100%, where Slopec, Slopes, and Slopeb are the slopes obtained from the OD340 nm versus the reaction time (min) dotted lines of the control group (without sample), sample group (with enzyme and sample), and blank group (without enzyme or sample), respectively. |Slope| is the absolute value of Slope.

[6] = test system: streptozotocin-induced diabetic rats; settings: cited from earlier work
[7] = test system: diabetic rats; settings: cited from earlier work
[8] = test system: streptozotocin-induced diabetic cats; settings: cited from earlier work
[9] = cited from earlier work
[10] = test system: diabetic Octodon degus; design: method as in PMID 401544; settings: oral administration; cited from earlier work
[11] = 6.25 µM, read-out: AR inhibition activity, inhibition (%)
[12] = 12.5 µM, read-out: AR inhibition activity, inhibition (%)
[13] = 25 µM, read-out: AR inhibition activity, inhibition (%)
[14] = 50 µM, read-out: AR inhibition activity, inhibition (%)
[15] = read-out: AR inhibition activity, inhibition (%)

IC50 [3]: 60.5 ± 2.62 µM | inhibition at 12.5 µM [3]: < 0% | inhibition at 25 µM [3]: 14.9 ± 3.87% | inhibition at 50 µM [3]: 44.5 ± 2.54% | inhibition at 100 µM [3]: 68.4 ± 0.92% | inhibition at 6.25 µM [5, 11]: 8.57 ± 0.06% | inhibition at 12.5 µM [5, 12]: 14.4 ± 0.6% | inhibition at 25 µM [5, 13]: 27.2 ± 0.36% | inhibition at 50 µM [5, 14]: 53.3 ± 2.76% | IC50 [5]: 47 ± 2.28 µM
Structure (SMILES): O=C(O)c1ccc(O)c(Nc2cc(C(=O)O)ccc2O)c1 [4,4′-dihydroxy-3,3′-imino-di-benzoic acid]
TEAC, DPPH [1]: 1.38 ± 0.05 ^d µM trolox/µM Compound | TEAC, ABTS [2]: 1.27 ± 0.03 ^c µM trolox/µM Compound | TEAC, ORAC [4]: 5.75 ± 0.26 ^b µM trolox/µM Compound

Structure (SMILES): Cl.N=C(N)NN [Aminoguanidine hydrochloride, aminoguanidine hydrochloride, reference compound]
Antiglycation activity, inhibition (%) ([3]; 1000 µM): 10.99 ± 0.07% | Antiglycation activity, inhibition (%) ([3]; 2000 µM): 44.58 ± 0.54% | Antiglycation activity, inhibition (%) ([3]; 4000 µM): 81.26 ± 0.88% | Antiglycation IC50 ([3]; fructose-mediated BSA glycation, 14 days, 37 °C): 317.36 µg/mL | IC50 ([3]; read-out: Antiglycation activity, IC50, fructose-mediated BSA glycation): 2181 ± 8.11 µM

Structure (SMILES): O=C(O)c1cc(O)c(O)c(O)c1 [Gallic acid (3), gallic acid]
TEAC, DPPH [1]: 3.01 ± 0.04 ^a µM trolox/µM Compound | TEAC, DPPH ([1]; listed as gallic acid): 3.01 µM trolox/µM Compound | Effect on oxidative stress [6]: ameliorate the oxidative stress | TEAC, ABTS [2]: 3.35 ± 0.06 ^b µM trolox/µM Compound | inhibition at 12.5 µM [3]: < 0% | inhibition at 25 µM [3]: < 0% | inhibition at 50 µM [3]: 3.69 ± 2.97% | inhibition at 100 µM [3]: 8.42 ± 1.27% | TEAC, ORAC [4]: 1.43 ± 0.08 ^d µM trolox/µM Compound | inhibition at 6.25 µM [5, 11]: < 0% | inhibition at 12.5 µM [5, 12]: 4.16 ± 5.43% | inhibition at 25 µM [5, 13]: 4.16 ± 1.81% | inhibition at 50 µM [5, 14]: 13.5 ± 1.21%

Structure (SMILES): O=C(O)[C@H]1O[C@@H](Oc2c(-c3ccc(O)c(O)c3)oc3cc(O)cc(O)c3c2=O)[C@H](O)[C@@H](O)[C@@H]1O [Miquelianin (7), miquelianin]
TEAC, DPPH [1]: 1.97 ± 0.02 ^c µM trolox/µM Compound | TEAC, ABTS [2]: 0.99 ± 0.05 ^f µM trolox/µM Compound | IC50 [3]: 24.5 ± 0.52 µM | inhibition at 12.5 µM [3]: 24.9 ± 2.12% | inhibition at 25 µM [3]: 49.4 ± 1.26% | inhibition at 50 µM [3]: 78 ± 2.28% | inhibition at 100 µM [3]: 90 ± 1.92% | TEAC, ORAC [4]: 5.85 ± 0.20 ^b µM trolox/µM Compound | IC50 [5]: 7.93 ± 0.4 µM | inhibition at 3.125 µM [5, 15]: 29.7 ± 1.21% | inhibition at 6.25 µM [5, 15]: 44.5 ± 2.11% | inhibition at 12.5 µM [5, 15]: 59.1 ± 6.86% | inhibition at 25 µM [5, 15]: 76.7 ± 1.21%

Structure (SMILES): O=C(O)c1ccc(O)c(O)c1 [Protocatechuic acid (4), protocatechuic acid]
TEAC, DPPH [1]: 0.72 ± 0.01 ^f µM trolox/µM Compound | Effect on oxidative stress [6]: ameliorate the oxidative stress | TEAC, ABTS [2]: 0.88 ± 0.03 ^g µM trolox/µM Compound | inhibition at 12.5 µM [3]: 5.26 ± 4.29% | inhibition at 25 µM [3]: 11.4 ± 3.92% | inhibition at 50 µM [3]: 36.1 ± 0.78% | inhibition at 100 µM [3]: 48.4 ± 1.76% | TEAC, ORAC [4]: 5.79 ± 0.32 ^b µM trolox/µM Compound | inhibition at 6.25 µM [5, 15]: 0.96 ± 2.11% | inhibition at 12.5 µM [5, 15]: 2.67 ± 2.71% | inhibition at 25 µM [5, 15]: 7.14 ± 0.6% | inhibition at 50 µM [5, 15]: 7.78 ± 1.51%

Structure (SMILES): O=c1c(O)c(-c2ccc(O)c(O)c2)oc2cc(O)cc(O)c12 [Quercetin (10), quercetin]
TEAC, DPPH [1]: 2.14 ± 0.03 ^b µM trolox/µM Compound | Effect on oxidative stress [6]: ameliorate the oxidative stress | TEAC, ABTS [2]: 3.61 ± 0.03 ^a µM trolox/µM Compound | TEAC, ABTS ([2]; listed as quercetin): 3.61 µM trolox/µM Compound | inhibition at 12.5 µM [3]: 19.4 ± 1.76% | inhibition at 25 µM [3]: 35.4 ± 0.92% | inhibition at 50 µM [3]: 67.47 ± 0.24% | inhibition at 100 µM [3]: 84.3 ± 1.39% | Progression of lens opacification [7]: delay the progression of lens opacification | Impaired cardiac function [8]: partially reverse the impaired cardiac function | Inhibition of AGEs by trapping methylglyoxal [9]: inhibit AGEs by trapping methylglyoxal | TEAC, ORAC [4]: 6.93 ± 0.30 ^a µM trolox/µM Compound | inhibition at 3.125 µM [5, 15]: 12.9 ± 2.11% | inhibition at 6.25 µM [5, 15]: 26.3 ± 1.21% | inhibition at 12.5 µM [5, 15]: 43 ± 3.02% | inhibition at 25 µM [5, 15]: 60 ± 1.21%

Structure (SMILES): C[C@@H]1O[C@@H](Oc2c(-c3ccc(O)c(O)c3)oc3cc(O)cc(O)c3c2=O)[C@H](O)[C@H](O)[C@H]1O [Quercitrin (9), quercitrin]
TEAC, DPPH [1]: 0.92 ± 0.01 ^e µM trolox/µM Compound | Effect on oxidative stress [6]: ameliorate the oxidative stress | Accumulation of sorbitol in the lens [10]: significantly decreased | Onset of cataract [10]: delayed | TEAC, ABTS [2]: 1.07 ± 0.05 ^e µM trolox/µM Compound | IC50 [3]: 17.6 ± 0.28 µM | inhibition at 12.5 µM [3]: 32.3 ± 0.24% | inhibition at 25 µM [3]: 75.2 ± 2.52% | inhibition at 50 µM [3]: 89.1 ± 1.26% | inhibition at 100 µM [3]: 94.3 ± 1.39% | Inhibition of AGEs by trapping methylglyoxal [9]: inhibit AGEs by trapping methylglyoxal | TEAC, ORAC [4]: 5.32 ± 0.29 ^c µM trolox/µM Compound | inhibition at 0.049 µM [5, 15]: 12 ± 0.82% | inhibition at 0.098 µM [5, 15]: 33.3 ± 2.17% | inhibition at 0.195 µM [5, 15]: 54.6 ± 1.78% | inhibition at 3.125 µM [5, 15]: 94.35 ± 0.3%

inhibition at 12.5 µM [3]: < 0% | inhibition at 25 µM [3]: < 0% | inhibition at 50 µM [3]: < 0% | inhibition at 100 µM [3]: < 0% | inhibition at 6.25 µM [5, 11]: < 0% | inhibition at 12.5 µM [5, 12]: 0.32 ± 1.21% | inhibition at 25 µM [5, 13]: 5.86 ± 5.42% | inhibition at 50 µM [5, 14]: 7.36 ± 0.3%
Structure (SMILES): O=C(O)C1=C[C@@H](O)[C@@H](O)[C@H](O)C1 [Shikimic acid (2), shikimic acid]

— article PMC7796107, “Efficient Separation of Phytochemicals from Muehlenbeckia volcanica (Benth.) Endl. by Polarity-Stepwise Elution Counter-Current Chromatography and Their Antioxidant, Antiglycation, and Aldose Reductase Inhibition Potentials” (Molecules, 2021)
